This is an account of results in patent US8598211B2, “Carboxamide compounds and their use as calpain inhibitors IV” (AbbVie Inc., priority 2009, dated 2013).

T2 sequence (P07711 114-333): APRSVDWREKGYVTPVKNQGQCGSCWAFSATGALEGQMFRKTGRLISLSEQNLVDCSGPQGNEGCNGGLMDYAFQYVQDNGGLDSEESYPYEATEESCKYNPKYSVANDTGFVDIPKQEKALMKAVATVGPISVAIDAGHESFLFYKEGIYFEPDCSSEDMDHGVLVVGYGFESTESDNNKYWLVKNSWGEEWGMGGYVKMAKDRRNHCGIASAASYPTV

The target in the first assay is T1, calpain-I (Homo sapiens, UniProt P07384).
T1 construct: calpain-I—isolated from human erythrocytes; purchased Calbiochem 208713; host or cells: human erythrocytes (natural source)
T1 sequence (P07384 1-714): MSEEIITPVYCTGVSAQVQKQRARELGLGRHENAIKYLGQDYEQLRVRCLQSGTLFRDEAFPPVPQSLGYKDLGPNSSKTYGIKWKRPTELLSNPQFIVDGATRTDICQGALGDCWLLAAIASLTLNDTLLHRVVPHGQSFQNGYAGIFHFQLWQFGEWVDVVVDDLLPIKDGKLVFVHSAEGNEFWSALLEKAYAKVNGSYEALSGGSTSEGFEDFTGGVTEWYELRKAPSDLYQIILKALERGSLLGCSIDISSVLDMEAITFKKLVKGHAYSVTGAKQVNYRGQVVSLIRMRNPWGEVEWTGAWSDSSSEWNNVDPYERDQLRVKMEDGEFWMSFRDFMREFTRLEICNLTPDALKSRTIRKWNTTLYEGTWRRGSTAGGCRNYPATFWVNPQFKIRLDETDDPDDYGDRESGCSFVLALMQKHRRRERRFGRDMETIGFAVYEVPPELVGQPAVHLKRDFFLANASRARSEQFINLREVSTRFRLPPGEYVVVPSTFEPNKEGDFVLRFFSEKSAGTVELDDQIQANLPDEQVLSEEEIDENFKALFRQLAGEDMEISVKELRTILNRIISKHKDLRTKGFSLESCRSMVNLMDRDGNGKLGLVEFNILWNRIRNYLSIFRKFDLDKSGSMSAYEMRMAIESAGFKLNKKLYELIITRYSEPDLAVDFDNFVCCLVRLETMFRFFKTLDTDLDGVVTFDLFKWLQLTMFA
T1 sequence (P04632 1-268 partner): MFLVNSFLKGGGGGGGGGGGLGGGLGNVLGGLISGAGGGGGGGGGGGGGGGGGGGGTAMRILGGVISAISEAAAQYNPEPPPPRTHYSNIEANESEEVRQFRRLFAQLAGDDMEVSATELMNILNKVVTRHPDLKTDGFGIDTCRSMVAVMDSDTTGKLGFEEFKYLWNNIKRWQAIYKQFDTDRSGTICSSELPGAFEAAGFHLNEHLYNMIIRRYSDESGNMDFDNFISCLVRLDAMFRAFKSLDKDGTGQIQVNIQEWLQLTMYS
Kind of assay: Calpain I kinetic fluorescence enzyme inhibition assay. The settings on record: calpain-I from human erythrocytes, Suc-Leu-Tyr-AMC, pH 7.3; apparent Ki from IC50 by Cheng-Prussoff. The format is biochemical. As to the method:
Testing for blockade of the corresponding enzymic activities was carried out by means of kinetic fluorescence assays (excitation 390 nm, emission 460 nm).
Apparent Ki values were calculated from the experimentally determined IC50 values by the Cheng-Prussoff relation assuming a reversible competitive enzyme inhibition.
20 nM calpain-I—isolated from human erythrocytes (Calbiochem #208713), 100 μM Suc-Leu-Tyr-AMC (Bachem #I-1355) as substrate in buffer with 62 mM imidazole, 0.3 mM CaCl2, 0.10% CHAPS, 0.05% BSA, 1 mM DTT at pH 7.3 and room temperature.
Regarding `O=C(NC1CC1)C(=O)C(Cc1ccc(F)cc1)NC(=O)c1cccnc1-n1ccc(-c2ccccc2)n1` (stereo not drawn) [Example 13, N-(4-(Cyclopropylamino)-1-(4-fluorophenyl)-3,4-dioxobutan-2-yl)-2-(3-phenyl-1H-pyrazol-1-yl)nicotinamide], the Ki is 400 to 800 nM. As for `O=C(NC1CC1)C(=O)C(Cc1ccc(OCCN2CCOCC2)cc1)NC(=O)c1cccnc1-n1ccc(-c2ccccc2)n1` (stereo not drawn) [Example 23, N-[4-(Cyclopropylamino)-1-{4-[2-(4-morpholinyl)ethoxy]phenyl}-3,4-dioxo-2-butanyl]-2-(3-phenyl-1H-pyrazol-1-yl)nicotinamide], the Ki lay within 400 to 800 nM. Consider `CCCNC(=O)C(=O)C(Cc1ccccc1)NC(=O)c1cccnc1-n1ccc(-c2ccccc2)n1` (stereo not drawn) [Example 11, N-(3,4-Dioxo-1-phenyl-4-(propylamino)butan-2-yl)-2-(3-phenyl-1H-pyrazol-1-yl)nicotinamide], for which the Ki lay in the range of 400 to 800 nM.

As for `NC(=O)C(=O)C(Cc1ccccc1)NC(=O)c1cccnc1-n1ccc(-c2ccc(F)cc2)n1` (stereo not drawn) [Example 18, N-(3-Amino-1-benzyl-2,3-dioxopropyl)-2-[3-(4-fluorophenyl)-1H-pyrazol-1-yl]nicotinamide, reference compound], the Ki is less than 250 nM. Consider `O=C(NCc1nc2ccccc2o1)C(=O)C(Cc1ccccc1)NC(=O)c1cccnc1-n1ccc(-c2ccccc2)n1` (stereo not drawn) [Example 15, N-{4-[(1,3-Benzoxazol-2-ylmethyl)amino]-3,4-dioxo-1-phenylbutan-2-yl}-2-(3-phenyl-1H-pyrazol-1-yl)pyridine-3-carboxamide], for which the Ki was less than 250 nM.

In the case of `O=C(NC1CC1)C(=O)C(Cc1ccccc1)NC(=O)c1cccnc1-n1ccc(-c2ccc(F)cc2)n1` (stereo not drawn) [Example 19, N-[4-(Cyclopropylamino)-3,4-dioxo-1-phenyl-2-butanyl]-2-[3-(4-fluorophenyl)-1H-pyrazol-1-yl]nicotinamide], the Ki was 800 to 1000 nM. Consider `O=C(NC1CC1)C(=O)C(Cc1ccccc1)NC(=O)c1cccnc1-n1ccc(-c2ccccc2)n1` (stereo not drawn) [Example 5, N-[4-(Cyclopropylamino)-3,4-dioxo-1-phenylbutan-2-yl]-2-(3-phenyl-1H-pyrazol-1-yl)pyridine-3-carboxamide], for which the Ki was less than 250 nM. `O=C(NC1CCC1)C(=O)C(Cc1ccccc1)NC(=O)c1cccnc1-n1ccc(-c2ccccc2)n1` (stereo not drawn) [Example 10, N-(4-(Cyclobutylamino)-3,4-dioxo-1-phenylbutan-2-yl)-2-(3-phenyl-1H-pyrazol-1-yl)nicotinamide]: the Ki lay within 400 to 800 nM. With `O=C(NCC1CC1)C(=O)C(Cc1ccccc1)NC(=O)c1cccnc1-n1ccc(-c2ccccc2)n1` (stereo not drawn) [Example 9, N-(4-(Cyclopropylmethylamino)-3,4-dioxo-1-phenylbutan-2-yl)-2-(3-phenyl-1H-pyrazol-1-yl)nicotinamide], the Ki fell in the range of 400 to 800 nM. On to `O=C(NC1CC1)C(=O)C(Cc1ccc(CN2CCOCC2)cc1)NC(=O)c1cccnc1-n1ccc(-c2ccccc2)n1` (stereo not drawn) [Example 25, N-{4-(Cyclopropylamino)-1-[4-(4-morpholinylmethyl)phenyl]-3,4-dioxo-2-butanyl}-2-(3-phenyl-1H-pyrazol-1-yl)nicotinamide], for which the Ki fell in the range of 400 to 800 nM. Regarding `O=C(NCc1ncco1)C(=O)C(Cc1ccccc1)NC(=O)c1cccnc1-n1ccc(-c2ccccc2)n1` (stereo not drawn) [Example 24, N-{4-[(1,3-Oxazol-2-ylmethyl)amino]-3,4-dioxo-1-phenyl-2-butanyl}-2-(3-phenyl-1H-pyrazol-1-yl)nicotinamide], the Ki was in the range of 250 to 400 nM. Still for that read-out and setting: as for `O=C(NCCc1ccccc1)C(=O)C(Cc1ccccc1)NC(=O)c1cccnc1-n1ccc(-c2ccccc2)n1` (stereo not drawn) [Example 17, N-(3,4-Dioxo-4-(phenethylamino)-1-phenylbutan-2-yl)-2-(3-phenyl-1H-pyrazol-1-yl)nicotinamide], the figure is 250 to 400 nM. Still for that read-out and setting: as for `O=C(NCc1ccccc1)C(=O)C(Cc1ccccc1)NC(=O)c1cccnc1-n1ccc(-c2ccccc2)n1` (stereo not drawn) [Example 16, N-(4-(Benzylamino)-3,4-dioxo-1-phenylbutan-2-yl)-2-(3-phenyl-1H-pyrazol-1-yl)nicotinamide], the figure is less than 250 nM.

As for `COC(=O)CNC(=O)C(=O)C(Cc1ccccc1)NC(=O)c1cccnc1-n1ccc(-c2ccccc2)n1` (stereo not drawn) [Example 21, Methyl N-[2-oxo-4-phenyl-3-({[2-(3-phenyl-1H-pyrazol-1-yl)-3-pyridinyl]carbonyl}amino)butanoyl]glycinat], the Ki is less than 250 nM. As for `O=C(NCc1ccccn1)C(=O)C(Cc1ccccc1)NC(=O)c1cccnc1-n1ccc(-c2ccc(F)cc2)n1` (stereo not drawn) [Example 2, N-{3,4-Dioxo-1-phenyl-4-[(pyridin-2-ylmethyl)amino]butan-2-yl}-2-[3-(4-fluorophenyl)-1H-pyrazol-1-yl]pyridine-3-carboxamide], the Ki lay in the range of 250 to 400 nM.

With `C=CCNC(=O)C(=O)C(Cc1ccccc1)NC(=O)c1cccnc1-n1ccc(-c2ccccc2)n1` (stereo not drawn) [Example 6, N-[3,4-Dioxo-1-phenyl-4-(prop-2-en-1-ylamino)butan-2-yl]-2-(3-phenyl-1H-pyrazol-1-yl)pyridine-3-carboxamide], the Ki was in the range of 400 to 800 nM. Regarding `O=C(NCCCc1ccccn1)C(=O)C(Cc1ccccc1)NC(=O)c1cccnc1-n1ccc(-c2ccc(F)cc2)n1` (stereo not drawn) [Example 4, N-(3,4-Dioxo-1-phenyl-4-{[3-(pyridin-2-yl)propyl]amino}butan-2-yl)-2-[3-(4-fluorophenyl)-1H-pyrazol-1-yl]pyridine-3-carboxamide], the Ki was less than 250 nM. Still for that read-out and setting: as for `O=C(NC1CC1)C(=O)C(Cc1cccc(F)c1)NC(=O)c1cccnc1-n1ccc(-c2ccccc2)n1` (stereo not drawn) [Example 14, N-(4-(Cyclopropylamino)-1-(3-fluorophenyl)-3,4-dioxobutan-2-yl)-2-(3-phenyl-1H-pyrazol-1-yl)nicotinamide], the figure is 250 to 400 nM; as for `O=C(NCc1ccccn1)C(=O)C(Cc1ccccc1)NC(=O)c1cccnc1-n1ccc(-c2ccccc2)n1` (stereo not drawn) [Example 8, N-[4-(Pyridin-2-ylmethylamino)-3,4-dioxo-1-phenylbutan-2-yl]-2-(3-phenyl-1H-pyrazol-1-yl)pyridine-3-carboxamide], less than 250 nM. Consider `CNC(=O)C(=O)C(Cc1ccccc1)NC(=O)c1cccnc1-n1ccc(-c2ccccc2)n1` (stereo not drawn) [Example 7, N-(4-(Methylamino)-3,4-dioxo-1-phenylbutan-2-yl)-2-(3-phenyl-1H-pyrazol-1-yl)nicotinamide, reference compound], for which the Ki fell in the range of 250 to 400 nM. As to `O=C(NC1CC1)C(=O)C(Cc1ccccc1)NC(=O)c1cccnc1-n1cc(F)c(-c2ccccc2)n1` (stereo not drawn) [Example 12, N-(4-(Cyclopropylamino)-3,4-dioxo-1-phenylbutan-2-yl)-2-(4-fluoro-3-phenyl-1H-pyrazol-1-yl)nicotinamide], the Ki was in the range of 400 to 800 nM.

A further assay concerns the target T2, cathepsin L (Homo sapiens, UniProt P07711).
T2 construct: cathepsin L—isolated from human liver; purchased Calbiochem 219402; host or cells: human liver (natural source)
Kind of assay: Cathepsin L kinetic fluorescence enzyme inhibition assay. In kind it is biochemical. The settings on record: selectivity ratio versus calpain.
Method: 1 nM cathepsin L—isolated from human liver (Calbiochem #219402), 2 μM Z-Phe-Arg-AMC (Bachem #I-1160) as substrate in 50 mM MES, 2 mM EDTA, 0.05% Brij 35, 2.5 mM L-cysteine, pH 6.0, room temperature.
For the molecule `O=C(NC1CC1)C(=O)C(Cc1ccc(OCCN2CCOCC2)cc1)NC(=O)c1cccnc1-n1ccc(-c2ccccc2)n1` (stereo not drawn) [Example 23, N-[4-(Cyclopropylamino)-1-{4-[2-(4-morpholinyl)ethoxy]phenyl}-3,4-dioxo-2-butanyl]-2-(3-phenyl-1H-pyrazol-1-yl)nicotinamide], the “Sel cat. L (Ki(cathepsin L)/Ki(calpain) ratio)” value is reported as “++ (10<Ki(cathepsin L)/Ki(calpain)≦50)”.

The target in another assay is T3, cathepsin S (Homo sapiens, UniProt P25774).
T3 construct: purchased Calbiochem 219343; host or cells: E. coli
T3 sequence (P25774 115-331): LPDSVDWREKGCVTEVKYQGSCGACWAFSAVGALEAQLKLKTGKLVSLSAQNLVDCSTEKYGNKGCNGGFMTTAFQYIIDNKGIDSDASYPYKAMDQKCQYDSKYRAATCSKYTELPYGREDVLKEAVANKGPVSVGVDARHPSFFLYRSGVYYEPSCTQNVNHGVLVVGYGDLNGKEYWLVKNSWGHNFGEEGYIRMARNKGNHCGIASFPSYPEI
The assay is described as follows: Cathepsin S kinetic fluorescence enzyme inhibition assay. The settings on record: selectivity ratio versus calpain. The format is biochemical.
Method: 0.5 nM recombinant human cathepsin S from E. coli (Calbiochem #219343), 20 μM Z-Val-Val-Arg-AMC (Bachem #I-1540) as substrate in 50 mM MES, 2 mM EDTA, 0.05% Brij 35, 2.5 mM L-cysteine, pH 6.0, room temperature.
For `O=C(NC1CC1)C(=O)C(Cc1ccc(OCCN2CCOCC2)cc1)NC(=O)c1cccnc1-n1ccc(-c2ccccc2)n1` (stereo not drawn) [Example 23, N-[4-(Cyclopropylamino)-1-{4-[2-(4-morpholinyl)ethoxy]phenyl}-3,4-dioxo-2-butanyl]-2-(3-phenyl-1H-pyrazol-1-yl)nicotinamide], the “Sel cat. S (Ki(cathepsin S)/Ki(calpain) ratio)” value is listed as “++ (10<Ki(cathepsin S)/Ki(calpain)≦50)”. Take `O=C(NC1CC1)C(=O)C(Cc1ccc(CN2CCOCC2)cc1)NC(=O)c1cccnc1-n1ccc(-c2ccccc2)n1` (stereo not drawn) [Example 25, N-{4-(Cyclopropylamino)-1-[4-(4-morpholinylmethyl)phenyl]-3,4-dioxo-2-butanyl}-2-(3-phenyl-1H-pyrazol-1-yl)nicotinamide]: the “Sel cat. S (Ki(cathepsin S)/Ki(calpain) ratio)” value is “++ (10<Ki(cathepsin S)/Ki(calpain)≦50)”.
